Assays:
Assay type in all cases: ADME
Cytochrome P450 2C8 = target: T1, Cytochrome P450 2C8 (Homo sapiens, UniProt P10632); assay: Inhibition of human CYP2C8 using paclitaxel as substrate incubated for 5 mins followed by NADPH addition measured after 30 mins by LC-MS/MS analysis
T1 sequence (P10632 whole entry): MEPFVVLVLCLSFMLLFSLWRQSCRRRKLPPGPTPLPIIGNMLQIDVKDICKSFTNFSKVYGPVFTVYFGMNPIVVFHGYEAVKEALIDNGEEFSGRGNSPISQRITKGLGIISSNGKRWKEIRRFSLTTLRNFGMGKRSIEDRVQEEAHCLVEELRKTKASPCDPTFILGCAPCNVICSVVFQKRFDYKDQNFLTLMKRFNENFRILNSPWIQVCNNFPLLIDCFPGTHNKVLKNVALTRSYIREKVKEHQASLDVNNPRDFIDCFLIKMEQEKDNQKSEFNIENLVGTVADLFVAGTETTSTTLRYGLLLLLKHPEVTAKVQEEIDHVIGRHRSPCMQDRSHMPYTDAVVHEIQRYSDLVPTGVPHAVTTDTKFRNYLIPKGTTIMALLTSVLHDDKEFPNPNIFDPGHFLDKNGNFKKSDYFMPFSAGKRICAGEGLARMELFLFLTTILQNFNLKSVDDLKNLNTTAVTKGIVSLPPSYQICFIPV

Cytochrome P450 2C19 = Cytochrome P450 2C19 (Homo sapiens, UniProt P33261); assay: Inhibition of CYP2C19 in human liver microsomes assessed as enzyme-mediated metabolite formation using (S)-mephenytoin as substrate incubated for 5 mins followed by NADPH addition measured after 30 mins by LC-MS/MS analysis
CYP3A4 [1] = target: T2, CYP3A4 (Homo sapiens, UniProt P08684); assay: Inhibition of CYP3A4 in human liver microsomes assessed as enzyme-mediated metabolite formation at 10 uM using testosterone as substrate incubated for 5 mins followed by NADPH addition measured after 30 mins by LC-MS/MS analysis relative to control; parameters: scale not given: the % may be the effect or the level left; details: probe testosterone, read-out: Activity
CYP2C8 = target: T3, CYP2C8 (Homo sapiens, UniProt P10632); assay: Inhibition of CYP2C8 in human liver microsomes assessed as enzyme-mediated metabolite formation at 30 uM using paclitaxel as substrate preincubated for 20 mins followed by substrate addition measured after 30 mins in presence of NADPH by LC-MS/MS analysis relative to control; parameters: scale not given: the % may be the effect or the level left; details: probe paclitaxel, read-out: Activity
T3 sequence (P10632 whole entry): T1 sequence (P10632 whole entry)

CYP2D6 [2] = target: T4, CYP2D6 (Homo sapiens, UniProt P10635); assay: Inhibition of CYP2D6 in human liver microsomes assessed as enzyme-mediated metabolite formation at 10 uM using dextromethorphan as substrate incubated for 5 mins followed by NADPH addition measured after 30 mins by LC-MS/MS analysis relative to control; parameters: scale not given: the % may be the effect or the level left; details: probe dextromethorphan, read-out: Activity
CYP2C19 = CYP2C19 (Homo sapiens, UniProt P33261); assay: Inhibition of CYP2C19 in human liver microsomes assessed as enzyme-mediated metabolite formation at 3 uM using (S)-mephenytoin as substrate preincubated for 20 mins followed by substrate addition measured after 30 mins in presence of NADPH by LC-MS/MS analysis relative to control; parameters: scale not given: the % may be the effect or the level left; details: probe (S)-mephenytoin, read-out: Activity
CYP3A4 [3] = target: T2, CYP3A4; assay: Inhibition of CYP3A4 in human liver microsomes assessed as enzyme-mediated metabolite formation at 10 uM using midazolam as substrate incubated for 5 mins followed by NADPH addition measured after 30 mins by LC-MS/MS analysis relative to control; parameters: scale not given: the % may be the effect or the level left; details: probe midazolam, read-out: Activity
CYP3A4 [4] = target: T2, CYP3A4; assay: Inhibition of CYP3A4 in human liver microsomes assessed as enzyme-mediated metabolite formation at 0.1 uM using midazolam as substrate preincubated for 20 mins followed by substrate addition measured after 30 mins in presence of NADPH by LC-MS/MS analysis relative to control; parameters: scale not given: the % may be the effect or the level left; details: probe midazolam, read-out: Activity
CYP2A6 = target: T5, CYP2A6 (Homo sapiens, UniProt P11509); assay: Inhibition of CYP2A6 in human liver microsomes assessed as enzyme-mediated metabolite formation at 0.1 uM using coumarin as substrate preincubated for 20 mins followed by substrate addition measured after 30 mins in presence of NADPH by LC-MS/MS analysis relative to control; parameters: scale not given: the % may be the effect or the level left; details: probe coumarin, read-out: Activity
T5 sequence (P11509 whole entry): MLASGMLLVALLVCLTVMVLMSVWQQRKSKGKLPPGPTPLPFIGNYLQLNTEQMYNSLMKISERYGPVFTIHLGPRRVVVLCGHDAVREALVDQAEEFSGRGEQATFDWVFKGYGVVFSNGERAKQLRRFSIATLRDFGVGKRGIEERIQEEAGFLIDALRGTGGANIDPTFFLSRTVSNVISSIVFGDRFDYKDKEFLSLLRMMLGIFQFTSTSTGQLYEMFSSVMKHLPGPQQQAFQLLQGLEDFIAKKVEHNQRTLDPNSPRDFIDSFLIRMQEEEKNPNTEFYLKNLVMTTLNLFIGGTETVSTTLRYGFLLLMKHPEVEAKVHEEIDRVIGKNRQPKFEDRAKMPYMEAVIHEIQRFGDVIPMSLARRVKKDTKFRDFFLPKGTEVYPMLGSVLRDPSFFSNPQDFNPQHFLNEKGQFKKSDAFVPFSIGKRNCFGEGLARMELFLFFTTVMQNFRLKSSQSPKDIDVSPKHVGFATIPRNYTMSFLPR

CYP1A2 = target: T6, CYP1A2 (Homo sapiens, UniProt P05177); assay: Inhibition of CYP1A2 in human liver microsomes assessed as enzyme-mediated metabolite formation at 3 uM using phenacetin as substrate preincubated for 20 mins followed by substrate addition measured after 30 mins in presence of NADPH by LC-MS/MS analysis relative to control; parameters: scale not given: the % may be the effect or the level left; details: probe phenacetin, read-out: Activity
T6 sequence (P05177 whole entry): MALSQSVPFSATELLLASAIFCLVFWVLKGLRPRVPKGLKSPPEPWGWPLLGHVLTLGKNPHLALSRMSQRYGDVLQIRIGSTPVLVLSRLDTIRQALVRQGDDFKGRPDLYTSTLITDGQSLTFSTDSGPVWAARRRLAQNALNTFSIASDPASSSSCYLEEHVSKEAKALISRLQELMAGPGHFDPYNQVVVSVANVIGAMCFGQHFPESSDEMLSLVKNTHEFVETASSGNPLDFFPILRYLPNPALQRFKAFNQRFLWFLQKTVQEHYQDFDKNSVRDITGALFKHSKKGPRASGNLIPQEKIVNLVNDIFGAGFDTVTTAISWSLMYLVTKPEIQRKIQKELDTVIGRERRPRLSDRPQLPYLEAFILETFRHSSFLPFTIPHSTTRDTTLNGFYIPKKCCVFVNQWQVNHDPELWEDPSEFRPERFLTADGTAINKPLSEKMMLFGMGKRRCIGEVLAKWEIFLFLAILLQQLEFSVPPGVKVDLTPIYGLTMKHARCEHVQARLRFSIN

CYP2D6 [5] = target: T4, CYP2D6; assay: Inhibition of CYP2D6 in human liver microsomes assessed as enzyme-mediated metabolite formation at 10 uM using dextromethorphan as substrate preincubated for 20 mins followed by substrate addition measured after 30 mins in presence of NADPH by LC-MS/MS analysis relative to control; parameters: scale not given: the % may be the effect or the level left; details: probe dextromethorphan, read-out: Activity

T2 sequence (P08684 whole entry): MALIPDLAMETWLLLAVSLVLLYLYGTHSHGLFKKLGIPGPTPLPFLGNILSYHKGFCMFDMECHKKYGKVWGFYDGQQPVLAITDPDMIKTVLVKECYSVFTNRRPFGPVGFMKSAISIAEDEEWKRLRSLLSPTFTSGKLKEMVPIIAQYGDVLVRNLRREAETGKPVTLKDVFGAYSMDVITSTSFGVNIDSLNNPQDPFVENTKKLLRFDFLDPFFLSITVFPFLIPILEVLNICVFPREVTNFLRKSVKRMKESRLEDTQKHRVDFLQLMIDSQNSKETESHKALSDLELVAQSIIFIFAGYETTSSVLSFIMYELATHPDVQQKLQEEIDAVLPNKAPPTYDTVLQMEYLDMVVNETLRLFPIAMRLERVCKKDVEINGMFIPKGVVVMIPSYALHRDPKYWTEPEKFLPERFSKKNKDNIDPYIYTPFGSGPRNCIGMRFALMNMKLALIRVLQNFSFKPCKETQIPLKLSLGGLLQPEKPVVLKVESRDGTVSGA
T4 sequence (P10635 whole entry): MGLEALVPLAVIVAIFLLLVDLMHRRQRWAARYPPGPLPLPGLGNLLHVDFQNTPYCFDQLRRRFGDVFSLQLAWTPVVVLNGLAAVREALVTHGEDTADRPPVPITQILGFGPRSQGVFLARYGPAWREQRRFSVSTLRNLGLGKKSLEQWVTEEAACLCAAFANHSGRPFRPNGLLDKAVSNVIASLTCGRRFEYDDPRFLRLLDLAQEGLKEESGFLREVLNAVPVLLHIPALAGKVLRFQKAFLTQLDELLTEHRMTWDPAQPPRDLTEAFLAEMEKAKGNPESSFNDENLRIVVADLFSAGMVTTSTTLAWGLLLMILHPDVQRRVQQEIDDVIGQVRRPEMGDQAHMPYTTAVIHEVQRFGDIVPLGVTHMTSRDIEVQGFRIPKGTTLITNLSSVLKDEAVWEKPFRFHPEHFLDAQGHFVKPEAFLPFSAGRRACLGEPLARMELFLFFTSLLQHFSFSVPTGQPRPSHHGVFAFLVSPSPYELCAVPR
Chain of CYP2C19 (P33261 whole entry): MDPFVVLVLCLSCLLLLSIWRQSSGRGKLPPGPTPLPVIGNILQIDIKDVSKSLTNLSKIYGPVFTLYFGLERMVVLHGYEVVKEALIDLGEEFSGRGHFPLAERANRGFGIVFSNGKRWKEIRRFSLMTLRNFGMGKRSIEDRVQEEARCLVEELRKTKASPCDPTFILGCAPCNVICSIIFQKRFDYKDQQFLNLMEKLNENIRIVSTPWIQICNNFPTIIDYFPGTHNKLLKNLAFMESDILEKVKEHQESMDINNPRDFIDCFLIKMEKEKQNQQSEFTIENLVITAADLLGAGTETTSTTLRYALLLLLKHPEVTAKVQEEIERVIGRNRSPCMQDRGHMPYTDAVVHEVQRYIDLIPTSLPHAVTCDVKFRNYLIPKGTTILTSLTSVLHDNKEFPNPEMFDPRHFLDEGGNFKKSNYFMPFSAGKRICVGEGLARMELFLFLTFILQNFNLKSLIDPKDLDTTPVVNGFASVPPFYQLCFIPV
Chain of Cytochrome P450 2C19 (P33261 whole entry): as above

**Q.** Which results are given for CCCCCCCC(=O)CCc1ccc(O)c(OC)c1?
**A.** IC50 (Cytochrome P450 2C8): 3.8 µM; inhibition (INH) (Cytochrome P450 2C8; human, 0.5 h): Dose-dependent effect; IC50 (Cytochrome P450 2C19): 17.6 µM; activity at 0.5 h, 10 µM (CYP3A4 [1]): 58.6%; activity at 0.5 h, 30 µM (CYP2C8): 40.2%; activity at 0.5 h, 10 µM (CYP2D6 [2]): 60.4%; activity at 0.5 h, 3 µM (CYP2C19): 67.6%; activity at 0.5 h, 10 µM (CYP3A4 [3]): 71%; activity at 0.5 h, 0.1 µM (CYP3A4 [4]): 96.3%; activity at 0.5 h, 0.1 µM (CYP2A6): 96.5%; activity at 0.5 h, 3 µM (CYP1A2): 76.5%; activity at 0.5 h, 10 µM (CYP2D6 [5]): 99.4%

From ChEMBL document CHEMBL4007467, “Effects of 6-paradol, an unsaturated ketone from gingers, on cytochrome P450-mediated drug metabolism” (Bioorg Med Chem Lett, 2017)
